The record followed here is patent publication US20080009418A1, “Selective Inhibitors” (Alchemia LTD., priority 2004, published 2008).

What all share (settings): compound at 10 μM
In one experiment the target is T1, Human Melanocortin (MC4) (Homo sapiens, UniProt P32245).
T1 construct: purchased Perkin Elmer Biosignal
Nature of the experiment: Radioligand binding, human melanocortin MC4 membranes, FlashPlate, [125I]-NDP-αMSH. The method in brief:
(§1)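 Cloned human receptor membranes were coated onto FlashPlate wells and incubated with radioligand and compound (added from a 0.5 mM DMSO daughter plate) for 1 hour at room temperature in the dark. Scintillation counting gave percent inhibition, with DMSO defining total and reference ligand defining non-specific binding.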

The target in the next experiment is T2, Human κ-Opioid (KOP) (Homo sapiens, UniProt P41145).
T2 construct: purchased Perkin Elmer Biosignal
Nature of the experiment: Radioligand binding, human κ-opioid (KOP) membranes, filtration, [3H]-Diprenorphine. The method in brief:
(§2)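 Filtration binding on cloned human receptor membranes (1 Unit/well), [125I]-Substance P for NK1 and [3H]-Diprenorphine for KOP, 1 h at room temperature. Filters PEI-presoaked, washed with cold 50 mM Tris-HCl pH 7.4, counted by scintillation; percent inhibition calculated, reference ligand defining non-specific binding.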

The target in another experiment is T3, Human opioid (ORL1) (Homo sapiens, UniProt P41146).
T3 construct: purchased Perkin Elmer Biosignal
The experiment can be described thus: Radioligand binding, human opioid ORL1 membranes, FlashPlate, [125I]-Nociceptin. The essentials:
as §1

In experiment [1] the target is T4, Human neuropeptide Y (NPY-Y1) (Homo sapiens, UniProt P25929).
T4 construct: purchased Perkin Elmer Biosignal
T4 sequence (P25929 1-384): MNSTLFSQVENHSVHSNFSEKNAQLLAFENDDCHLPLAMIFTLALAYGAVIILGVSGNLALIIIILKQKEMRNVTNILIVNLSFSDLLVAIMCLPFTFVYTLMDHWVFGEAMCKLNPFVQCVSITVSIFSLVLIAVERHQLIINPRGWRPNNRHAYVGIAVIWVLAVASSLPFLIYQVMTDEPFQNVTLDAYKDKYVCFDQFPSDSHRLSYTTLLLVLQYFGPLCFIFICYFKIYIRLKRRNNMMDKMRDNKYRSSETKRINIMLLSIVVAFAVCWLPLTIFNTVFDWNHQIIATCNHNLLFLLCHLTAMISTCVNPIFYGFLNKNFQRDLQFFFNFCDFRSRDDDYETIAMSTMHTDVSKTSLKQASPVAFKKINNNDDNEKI
The experiment can be described thus: Radioligand binding, human neuropeptide Y NPY-Y1 membranes, FlashPlate, [125I]-PYY. The method in brief: as §1

For the next experiment, the target named is T5, Mouse urotensin (mUR2) (Mus musculus, UniProt Q8VIH9).
T5 construct: purchased Perkin Elmer Biosignal
T5 sequence (Q8VIH9 1-385): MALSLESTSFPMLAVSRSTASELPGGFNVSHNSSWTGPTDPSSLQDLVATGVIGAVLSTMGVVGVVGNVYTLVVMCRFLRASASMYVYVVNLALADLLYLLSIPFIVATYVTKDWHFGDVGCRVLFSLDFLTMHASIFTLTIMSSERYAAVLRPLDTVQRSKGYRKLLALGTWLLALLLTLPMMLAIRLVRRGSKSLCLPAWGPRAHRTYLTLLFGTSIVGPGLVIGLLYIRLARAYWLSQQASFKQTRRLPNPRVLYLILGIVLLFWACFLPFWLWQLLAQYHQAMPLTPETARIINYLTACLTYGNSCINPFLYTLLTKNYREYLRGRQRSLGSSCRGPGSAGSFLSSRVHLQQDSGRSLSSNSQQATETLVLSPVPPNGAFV
The experiment can be described thus: Radioligand binding, mouse urotensin mUR2 membranes, FlashPlate, [125I]-Urotensin II. The essentials: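 Cloned mouse urotensin (mUR2) receptor membranes from Perkin Elmer Biosignal were immobilized in FlashPlate microplates using a proprietary coating. Each well got 19.5 μl buffer, then 0.5 μl of DMSO, reference ligand, or compound. Adding 5 μl of [125I]-Urotensin II, diluted to 5× final concentration in binding buffer, started binding. Plates were sealed with TopSeal-A and incubated 1 hour at room temperature in the dark. Wells were counted for 30 seconds each on a TopCount after a 60-second delay, and percentage inhibition was calculated.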

Experiment [2] has as its target T6, Human melanin-concentrating hormone (MCH1) (Homo sapiens, UniProt Q99705).
T6 construct: purchased Perkin Elmer Biosignal
Nature of the experiment: Radioligand binding, human melanin-concentrating hormone MCH1 membranes, FlashPlate, [125I]-S36057. The method in brief:
as §1

In the next experiment the target is T7, Human neurokinin (NK1) (Homo sapiens, UniProt P25103).
T7 construct: purchased Perkin Elmer Biosignal
The experiment can be described thus: Radioligand binding, human neurokinin NK1 membranes, filtration, [125I]-Substance P. The method in brief: as §2

A further experiment concerns the target T8, Human melanocortin (MC5) (Homo sapiens, UniProt P33032).
T8 construct: purchased Perkin Elmer Biosignal
The experiment can be described thus: Radioligand binding, human melanocortin MC5 membranes, FlashPlate, [125I]-NDP-αMSH. The essentials: as §1

The target of the next experiment is T9, Human μ-opioid (MOP) (Homo sapiens, UniProt P35372).
T9 construct: purchased Perkin Elmer Biosignal
Nature of the experiment: Radioligand binding, human μ-opioid (MOP) membranes, FlashPlate, [3H]-Naloxone. The method in brief:
as §1

For a further experiment, the target named is T10, Human δ-opioid (DOP) (Homo sapiens, UniProt P41143).
T10 construct: purchased Perkin Elmer Biosignal
The experiment can be described thus: Radioligand binding, human δ-opioid (DOP) membranes, FlashPlate, [3H]-Bremazocine. The essentials:
as §1

The target in another experiment is T11, Human Melanocortin (MC3) (Homo sapiens, UniProt P41968).
T11 construct: purchased Perkin Elmer Biosignal
The experiment can be described thus: Radioligand binding, human melanocortin MC3 membranes, FlashPlate, [125I]-NDP-αMSH. The method in brief:
as §1

T3 sequence (P41146 whole entry): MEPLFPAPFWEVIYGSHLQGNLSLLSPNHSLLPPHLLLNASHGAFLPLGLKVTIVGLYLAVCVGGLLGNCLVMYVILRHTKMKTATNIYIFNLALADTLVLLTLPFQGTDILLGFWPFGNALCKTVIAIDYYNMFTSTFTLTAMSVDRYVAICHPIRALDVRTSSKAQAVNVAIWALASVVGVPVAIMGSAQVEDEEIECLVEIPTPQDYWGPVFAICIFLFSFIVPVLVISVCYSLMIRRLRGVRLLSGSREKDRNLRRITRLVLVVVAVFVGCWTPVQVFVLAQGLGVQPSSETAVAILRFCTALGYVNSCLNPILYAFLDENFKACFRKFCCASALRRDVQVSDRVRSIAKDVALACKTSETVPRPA
T1 sequence (P32245 whole entry): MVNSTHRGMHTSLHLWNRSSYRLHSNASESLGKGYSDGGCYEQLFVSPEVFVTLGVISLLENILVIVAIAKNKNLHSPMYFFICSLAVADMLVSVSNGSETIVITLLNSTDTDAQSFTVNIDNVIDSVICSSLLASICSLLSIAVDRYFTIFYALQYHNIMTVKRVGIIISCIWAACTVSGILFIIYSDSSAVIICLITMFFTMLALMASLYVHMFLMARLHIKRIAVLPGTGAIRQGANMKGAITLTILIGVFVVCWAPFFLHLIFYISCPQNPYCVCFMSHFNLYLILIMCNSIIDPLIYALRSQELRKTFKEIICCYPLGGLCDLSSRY
T10 sequence (P41143 whole entry): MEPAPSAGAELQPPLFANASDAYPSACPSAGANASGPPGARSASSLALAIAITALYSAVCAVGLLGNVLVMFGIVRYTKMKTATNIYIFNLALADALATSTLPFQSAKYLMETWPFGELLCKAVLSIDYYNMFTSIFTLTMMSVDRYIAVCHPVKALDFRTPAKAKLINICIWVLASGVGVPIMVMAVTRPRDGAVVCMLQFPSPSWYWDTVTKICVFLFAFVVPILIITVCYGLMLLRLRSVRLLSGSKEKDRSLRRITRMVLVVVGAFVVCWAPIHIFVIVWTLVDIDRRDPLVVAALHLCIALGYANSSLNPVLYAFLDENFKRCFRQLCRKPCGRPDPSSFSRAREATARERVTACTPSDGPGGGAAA
T7 sequence (P25103 whole entry): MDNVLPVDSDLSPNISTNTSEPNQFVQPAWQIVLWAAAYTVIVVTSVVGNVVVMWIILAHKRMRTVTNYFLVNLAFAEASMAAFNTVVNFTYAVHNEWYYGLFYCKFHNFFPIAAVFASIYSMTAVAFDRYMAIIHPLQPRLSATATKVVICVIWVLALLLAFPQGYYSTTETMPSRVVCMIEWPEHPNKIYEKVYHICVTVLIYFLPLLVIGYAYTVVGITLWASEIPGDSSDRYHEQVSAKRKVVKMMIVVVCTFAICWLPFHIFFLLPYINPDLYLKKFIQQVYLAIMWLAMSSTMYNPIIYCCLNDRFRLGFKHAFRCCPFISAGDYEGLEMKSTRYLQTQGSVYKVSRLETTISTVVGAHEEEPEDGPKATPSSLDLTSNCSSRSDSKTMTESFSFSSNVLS
T9 sequence (P35372 whole entry): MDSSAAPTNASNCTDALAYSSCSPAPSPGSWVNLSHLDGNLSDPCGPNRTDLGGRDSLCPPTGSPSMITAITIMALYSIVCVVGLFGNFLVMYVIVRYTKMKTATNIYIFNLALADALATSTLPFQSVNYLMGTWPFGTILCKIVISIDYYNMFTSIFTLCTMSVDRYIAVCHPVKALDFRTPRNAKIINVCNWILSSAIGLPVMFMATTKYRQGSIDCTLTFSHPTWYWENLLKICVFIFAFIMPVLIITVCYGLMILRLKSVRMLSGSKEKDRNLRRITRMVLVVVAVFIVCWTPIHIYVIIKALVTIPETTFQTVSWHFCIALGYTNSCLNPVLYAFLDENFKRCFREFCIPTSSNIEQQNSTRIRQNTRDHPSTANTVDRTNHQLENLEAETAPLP
T6 sequence (Q99705 whole entry): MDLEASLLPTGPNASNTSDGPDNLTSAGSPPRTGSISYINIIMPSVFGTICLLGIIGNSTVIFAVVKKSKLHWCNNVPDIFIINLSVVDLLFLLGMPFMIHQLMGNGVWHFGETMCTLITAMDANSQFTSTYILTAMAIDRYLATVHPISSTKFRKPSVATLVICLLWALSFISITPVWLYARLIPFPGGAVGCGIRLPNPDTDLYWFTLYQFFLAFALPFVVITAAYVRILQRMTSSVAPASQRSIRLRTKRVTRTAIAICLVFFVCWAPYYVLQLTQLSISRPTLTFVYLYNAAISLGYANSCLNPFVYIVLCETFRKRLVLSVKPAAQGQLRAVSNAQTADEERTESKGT
T8 sequence (P33032 whole entry): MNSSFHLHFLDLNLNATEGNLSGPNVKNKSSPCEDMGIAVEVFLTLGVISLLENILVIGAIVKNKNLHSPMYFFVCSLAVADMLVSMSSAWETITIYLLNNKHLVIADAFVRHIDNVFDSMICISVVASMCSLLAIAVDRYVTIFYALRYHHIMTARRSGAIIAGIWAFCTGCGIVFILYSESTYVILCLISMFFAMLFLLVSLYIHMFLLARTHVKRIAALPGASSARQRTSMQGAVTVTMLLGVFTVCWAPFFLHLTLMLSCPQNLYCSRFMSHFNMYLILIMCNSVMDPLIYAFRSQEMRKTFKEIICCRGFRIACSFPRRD
T2 sequence (P41145 whole entry): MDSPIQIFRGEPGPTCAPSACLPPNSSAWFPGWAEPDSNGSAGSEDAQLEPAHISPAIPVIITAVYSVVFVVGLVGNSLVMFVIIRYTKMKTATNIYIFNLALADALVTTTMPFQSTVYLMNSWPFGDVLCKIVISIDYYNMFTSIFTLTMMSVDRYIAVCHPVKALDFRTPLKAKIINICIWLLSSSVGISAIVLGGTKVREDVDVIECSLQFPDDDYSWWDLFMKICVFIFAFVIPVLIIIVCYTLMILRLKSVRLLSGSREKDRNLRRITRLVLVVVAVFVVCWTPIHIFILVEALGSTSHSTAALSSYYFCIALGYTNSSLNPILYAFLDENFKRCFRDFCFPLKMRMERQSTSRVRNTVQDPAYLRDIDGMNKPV
T11 sequence (P41968 whole entry): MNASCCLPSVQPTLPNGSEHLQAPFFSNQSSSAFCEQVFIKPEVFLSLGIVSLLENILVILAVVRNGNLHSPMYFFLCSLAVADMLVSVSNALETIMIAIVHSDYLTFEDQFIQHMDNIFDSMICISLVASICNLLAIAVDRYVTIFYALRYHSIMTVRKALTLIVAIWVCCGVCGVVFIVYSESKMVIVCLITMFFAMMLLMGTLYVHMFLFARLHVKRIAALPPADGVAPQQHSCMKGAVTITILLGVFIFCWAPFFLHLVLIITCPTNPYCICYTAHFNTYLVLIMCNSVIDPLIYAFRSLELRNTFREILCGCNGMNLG

Regarding `N=C(N)NCCC(=O)NC1C(OCc2ccc(-c3ccccc3)cc2)OC(COCc2ccc3ccccc3c2)C(O)C1OCc1ccc(Cl)cc1` (stereo not drawn) [compound 408], at Human Melanocortin (MC4) ([125I]-NDP-αMSH, human MC4 membranes), the “A4: inhibition of radioligand binding” value is “+ (“+” indicates greater than 50% inhibition at 10 μM)”. In addition, the “A2: inhibition of radioligand binding” value on Human κ-Opioid (KOP) ([3H]-Diprenorphine, human KOP membranes) is “− (“−” indicates less than 50% inhibition at 10 μM)”. In addition, the “A10: inhibition of radioligand binding” value on Human opioid (ORL1) ([125I]-Nociceptin, human ORL1 membranes) is “+ (“+” indicates greater than 50% inhibition at 10 μM)”. The “A9: inhibition of radioligand binding” value in experiment [1] ([125I]-PYY, human NPY-Y1 membranes) is recorded as “− (“−” indicates less than 50% inhibition at 10 μM)”. The “A11: inhibition of radioligand binding” value on Mouse urotensin (mUR2) ([125I]-Urotensin II, mouse mUR2 membranes) was “− (“−” indicates less than 50% inhibition at 10 μM)”. Also, the “A6: inhibition of radioligand binding” value in experiment [2] ([125I]-S36057, human MCH1 membranes) is on record as “+ (“+” indicates greater than 50% inhibition at 10 μM)”. In addition, the “A8: inhibition of radioligand binding” value at Human neurokinin (NK1) ([125I]-Substance P, human NK1 membranes) is “+ (“+” indicates greater than 50% inhibition at 10 μM)”. Besides, the “A5: inhibition of radioligand binding” value on Human melanocortin (MC5) ([125I]-NDP-αMSH, human MC5 membranes) was “+ (“+” indicates greater than 50% inhibition at 10 μM)”. Moreover, the “A7: inhibition of radioligand binding” value at Human μ-opioid (MOP) ([3H]-Naloxone, human MOP membranes) is “− (“−” indicates less than 50% inhibition at 10 μM)”. The “A1: inhibition of radioligand binding” value on Human δ-opioid (DOP) ([3H]-Bremazocine, human DOP membranes) is listed as “− (“−” indicates less than 50% inhibition at 10 μM)”. Also, at Human Melanocortin (MC3) ([125I]-NDP-αMSH, human MC3 membranes), the “A3: inhibition of radioligand binding” value is given as “+ (“+” indicates greater than 50% inhibition at 10 μM)”.

On to `CO[C@H]1[C@H](O)[C@@H](COCc2ccc(Cl)cc2)OC(OCc2ccc3ccccc3c2)[C@@H]1NC(=O)CCCN` (stereo partly drawn) [compound 80], for which the “A4 radioligand binding inhibition” value at Human Melanocortin (MC4) (human melanocortin MC4 membranes) is given as “+ (“+” indicates greater than 50% inhibition at 10 μM)”. Moreover, the “A2 radioligand binding inhibition” value at Human κ-Opioid (KOP) (human κ-opioid (KOP) membranes) is on record as “− (“−” indicates less than 50% inhibition at 10 μM)”. In addition, the “A10 radioligand binding inhibition” value on Human opioid (ORL1) (human ORL1 membranes) is “− (“−” indicates less than 50% inhibition at 10 μM)”. The “A9 radioligand binding inhibition” value in [1] (human NPY-Y1 membranes) is “− (“−” indicates less than 50% inhibition at 10 μM)”. At Mouse urotensin (mUR2) (mouse urotensin mUR2 membranes), the “A11 radioligand binding inhibition” value was “− (“−” indicates less than 50% inhibition at 10 μM)”. Moreover, the “A6 radioligand binding inhibition” value in experiment [2] (human MCH1 membranes) is on record as “− (“−” indicates less than 50% inhibition at 10 μM)”. Besides, on Human neurokinin (NK1) (human neurokinin NK1 membranes), the “A8 radioligand binding inhibition” value is reported as “+ (“+” indicates greater than 50% inhibition at 10 μM)”. For the same compound, the “A5 radioligand binding inhibition” value on Human melanocortin (MC5) (human melanocortin MC5 membranes) was “+ (“+” indicates greater than 50% inhibition at 10 μM)”. For the same compound, on Human μ-opioid (MOP) (human μ-opioid (MOP) membranes), the “A7 radioligand binding inhibition” value is recorded as “− (“−” indicates less than 50% inhibition at 10 μM)”. Moreover, the “A1 radioligand binding inhibition” value at Human δ-opioid (DOP) (human δ-opioid (DOP) membranes) is on record as “− (“−” indicates less than 50% inhibition at 10 μM)”. Besides, at Human Melanocortin (MC3) (human melanocortin MC3 membranes), the “A3 radioligand binding inhibition” value was “− (“−” indicates less than 50% inhibition at 10 μM)”.

Take `NCCC(=O)NC1COC(COCc2ccc(-c3ccccc3)cc2)C(O)C1OCc1ccc(Cl)cc1` (stereo not drawn) [compound 544]: at Human Melanocortin (MC4) ([125I]-NDP-αMSH), the “A4: inhibition of radioligand binding, human melanocortin (MC4)” value is on record as “− (“−” indicates less than 50% inhibition at 10 μM)”. Besides, the “A2: inhibition of radioligand binding, human κ-opioid (KOP)” value at Human κ-Opioid (KOP) ([3H]-Diprenorphine) was “+ (“+” indicates greater than 50% inhibition at 10 μM)”. The “A10: inhibition of radioligand binding, human opioid (ORL1)” value at Human opioid (ORL1) ([125I]-Nociceptin) is “− (“−” indicates less than 50% inhibition at 10 μM)”. Also, the “A9: inhibition of radioligand binding, human neuropeptide Y (NPY-Y1)” value in [1] ([125I]-PYY) was “− (“−” indicates less than 50% inhibition at 10 μM)”. Also, the “A11: inhibition of radioligand binding, mouse urotensin (mUR2)” value at Mouse urotensin (mUR2) ([125I]-Urotensin II) is given as “− (“−” indicates less than 50% inhibition at 10 μM)”. In experiment [2] ([125I]-S36057), the “A6: inhibition of radioligand binding, human melanin-concentrating hormone (MCH1)” value is on record as “− (“−” indicates less than 50% inhibition at 10 μM)”. In addition, on Human neurokinin (NK1) ([125I]-Substance P), the “A8: inhibition of radioligand binding, human neurokinin (NK1)” value is listed as “+ (“+” indicates greater than 50% inhibition at 10 μM)”. Besides, on Human melanocortin (MC5) ([125I]-NDP-αMSH), the “A5: inhibition of radioligand binding, human melanocortin (MC5)” value is “− (“−” indicates less than 50% inhibition at 10 μM)”. The “A7: inhibition of radioligand binding, human μ-opioid (MOP)” value at Human μ-opioid (MOP) ([3H]-Naloxone) was “− (“−” indicates less than 50% inhibition at 10 μM)”. For the same compound, the “A1: inhibition of radioligand binding, human δ-opioid (DOP)” value at Human δ-opioid (DOP) ([3H]-Bremazocine) is on record as “− (“−” indicates less than 50% inhibition at 10 μM)”. In addition, the “A3: inhibition of radioligand binding, human melanocortin (MC3)” value at Human Melanocortin (MC3) ([125I]-NDP-αMSH) is “+ (“+” indicates greater than 50% inhibition at 10 μM)”.
